Results: paper PMC12481576, “Barbituric Acid Derivatives as Covalent Inhibitors of Leishmania braziliensis Dihydroorotate Dehydrogenase” (Journal of Medicinal Chemistry, 2025)
Read-outs that look alike come from different tables or passages of the source.

Key:
[1] = molecular target: T1, LbDHODH (Leishmania braziliensis, UniProt E9AI53); assay: biochemical; settings: for IC50: LbDHODH; for inhibition at 100 µM: read-out: enzyme inhibition
Procedure: To assess the ability of compounds 2a–2i to inhibit LbDHODH via covalent bond formation with Cys^131, we initially screened them at a concentration of 100 μM under two conditions: with and without a 4-h preincubation with the enzyme.
The experiments were performed in a 96-well microplate reader (SpectraMax Plus 384, Molecular Devices, USA), containing the […] of the buffer 60 mM DCIP, 50 mM Tris pH 8.15, 150 mM KCl, 0.1% Triton X-100, 50 μM DHO and 10 μM of LbDHODH at 165 nM. The reaction was monitored every 3 s at 610 nm over a period of 60 s, in triplicate, for the control and each concentration of the inhibitor. All assays were performed without incubation (0h) and with 4-h preincubation of the inhibitor with LbDHODH, using 5% DMSO (v/v) as control. […]. […] The resulting kobs values were plotted as a function of inhibitor concentration, and the data in the initial linear region was fit to determine the slope, which is kinact/KI. All regressions were performed with GraphPad Prism 9.

[2] = molecular target: T1, LbDHODH; assay: Kinact/KI determination from LbDHODH progress curves (kobs vs inhibitor concentration); assay type: biochemical
Description: The Kinact/Ki ratio is a key parameter for evaluating the potency of covalent inhibitors, as it quantitatively measures both their reactivity and affinity for the target enzyme. This parameter integrates two crucial aspects: KI, which reflects the inhibitor’s binding affinity, and Kinact, which describes the rate at which the covalent bond is formed. […] Therefore, this ratio is essential for ranking covalent inhibitors, optimizing their potency, and guiding structure-based drug design.
The experiments were performed in a 96-well microplate reader (SpectraMax Plus 384, Molecular Devices, USA), containing the […] of the buffer 60 mM DCIP, 50 mM Tris pH 8.15, 150 mM KCl, 0.1% Triton X-100, 50 μM DHO and 10 μM of LbDHODH at 165 nM. The reaction was monitored every 3 s at 610 nm over a period of 60 s, in triplicate, for the control and each concentration of the inhibitor. All assays were performed without incubation (0h) and with 4-h preincubation of the inhibitor with LbDHODH, using 5% DMSO (v/v) as control. […] To determine the IC50 values, the activity percentage data were fitted as a function of the concentration logarithm by nonlinear regression analysis (variable hillslope) using Prism 9.0 software (GraphPad Software, USA). […] The resulting kobs values were plotted as a function of inhibitor concentration, and the data in the initial linear region was fit to determine the slope, which is kinact/KI. All regressions were performed with GraphPad Prism 9.

[3] = Cell viability / cytotoxicity assay (PrestoBlue, 72 h); assay type: cell-based; settings: human; THP-1 cell line, 72 h, max 200 μM; read-out: CC50
Procedure: THP-1 cells (American Type Cell Collection, #TIB-202) were acquired in 2019 and stored frozen in liquid nitrogen. The cells were then maintained in RPMI 1640 (Thermo Fisher Scientific, #S31800–022) at 37 °C in a 5% CO2 atmosphere and routinely tested for Mycoplasma contamination by PCR using the primers 5′-[…] and 5′-[…]. To test the toxicity of compounds, 5000 cells were added to 96-well plates with a final volume of 80 μL centrifuged at 400g for 2 min and incubated with 150 ng/mL of phorbol myristate acetate (Merck, #P8139) for 48 h. The medium was replaced, and after 24 h, the compounds were added and tested at decreasing concentrations starting from 200 μM (10 μL/well). After 72 h of incubation, 10 μL of PrestoBlue Cell Viability Reagent (Thermo Fisher Scientific, #A13262) was added per well. After adding the reagent, the cells were incubated for 2 h at 37 °C in a 5% CO2 atmosphere, and fluorescence readings were performed using the SpectraMax M3 reader (excitation at 560 nm and emission at 590 nm).

[4] = tested on: Leishmania braziliensis promastigotes; assay: Leishmanicidal activity, promastigote growth (SYBR Green, 72 h); assay type: cell-based, Leishmania (V.) braziliensis (MHOM/BR/1975/M2904); settings: Leishmania braziliensis, L. braziliensis promastigotes, max 200 μM
Procedure: The cultures were adjusted to 4 × 10^6 parasites per mL, and 50 μL of each culture was added on a test plate with 384 wells (Corning, #CLS3658), along with the controls and compounds to be tested. Previously diluted compounds in DMSO were added to plates in decreasing concentrations, with a maximum concentration of 200 μM. Parasites were exposed to a final concentration of DMSO in various dilutes (final = 0.5%), and the culture medium was used as the control for the experiment. […] After adding the lysis buffer, the plates were incubated in the dark for 2 h with gentle shaking. The readings were done using a SpectraMax M3 reader (excitation at 485 nm and emission at 535 nm).

[5] = molecular target: T2, HsDHODH (Homo sapiens, UniProt Q02127); assay: Selectivity assay: HsDHODH single-dose inhibition (DCIP reduction); assay type: biochemical
T2 construct: made in house
Procedure: […]. This finding highlights the potential of barbituric acid derivatives as selective inhibitors of LbDHODH.
Human DHODH expression and purification were conducted following a protocol previously established in our laboratory. The purification was carried out by affinity chromatography on a Ni-NTA Agarose column (Qiagen[…] Cat. No. 30210). […] The reaction was performed in triplicate, initiated by adding 195 μL of reaction buffer to 5 μL of HsDHODH protein solution for a final concentration of 20 nM enzyme. As a blank, 195 μL of reaction buffer was added to 5 μL of Buffer A. The reaction was monitored at 610 nm every 3 s over 60 s. As a control, 5 μL of enzyme was added to 195 μL of reaction medium without compound. Enzymatic velocity was calculated, and the percentage of relative enzymatic activity was determined relative to the control.

[6] = 0 h, pH 8.15, read-out: LbDHODH Activity±SD (%)
[7] = 4 h, pH 8.15, read-out: LbDHODH Activity±SD (%)
[8] = IC50 0 h, without preincubation
[9] = read-out: Single dose (0h) % activity
[10] = read-out: Single dose (4h) % activity

T2 sequence (Q02127 whole entry): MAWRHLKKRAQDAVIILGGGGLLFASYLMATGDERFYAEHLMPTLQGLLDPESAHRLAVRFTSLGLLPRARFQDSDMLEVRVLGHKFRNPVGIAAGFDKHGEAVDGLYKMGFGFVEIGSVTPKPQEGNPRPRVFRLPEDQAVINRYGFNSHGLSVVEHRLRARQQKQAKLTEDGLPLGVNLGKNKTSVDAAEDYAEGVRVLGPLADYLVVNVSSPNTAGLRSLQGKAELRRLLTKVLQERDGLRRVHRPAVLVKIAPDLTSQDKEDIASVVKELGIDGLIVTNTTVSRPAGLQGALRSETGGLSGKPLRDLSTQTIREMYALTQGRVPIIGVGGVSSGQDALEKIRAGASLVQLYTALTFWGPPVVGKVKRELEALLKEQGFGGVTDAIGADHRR
T1 sequence (E9AI53 entry or part of it): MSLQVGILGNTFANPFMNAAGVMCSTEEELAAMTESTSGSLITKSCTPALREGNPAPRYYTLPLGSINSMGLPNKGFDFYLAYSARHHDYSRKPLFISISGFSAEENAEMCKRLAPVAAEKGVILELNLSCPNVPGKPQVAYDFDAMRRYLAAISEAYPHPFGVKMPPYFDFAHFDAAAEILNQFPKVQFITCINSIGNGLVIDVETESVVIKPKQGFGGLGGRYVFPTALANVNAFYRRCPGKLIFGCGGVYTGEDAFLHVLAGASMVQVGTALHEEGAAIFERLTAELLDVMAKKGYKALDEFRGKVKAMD

O=C1NC(=O)C(=Cc2ccccc2)C(=O)N1 [2a, 5-Benzylidenepyrimidine-2,4,6(1H,3H,5H)-trione]
activity at 0.195312 µM [1, 6]: 108 ± 9% | activity at 0.390625 µM [1, 6]: 106 ± 13% | activity at 0.78125 µM [1, 6]: 110 ± 8% | activity at 1.5625 µM [1, 6]: 103 ± 8% | activity at 3.125 µM [1, 6]: 106 ± 8% | activity at 6.25 µM [1, 6]: 88 ± 10% | activity at 12.5 µM [1, 6]: 73 ± 9% | activity at 25 µM [1, 6]: 60 ± 9% | activity at 50 µM [1, 6]: 54 ± 9% | activity at 100 µM [1, 6]: 36 ± 5% | activity at 200 µM [1, 6]: 27 ± 9% | activity at 400 µM [1, 6]: 20 ± 2% | activity at 0.195312 µM [1, 7]: 110 ± 16% | activity at 0.390625 µM [1, 7]: 92 ± 13% | activity at 0.78125 µM [1, 7]: 91 ± 6% | activity at 1.5625 µM [1, 7]: 84 ± 15% | activity at 3.125 µM [1, 7]: 74 ± 10% | activity at 6.25 µM [1, 7]: 54 ± 4% | activity at 12.5 µM [1, 7]: 55 ± 5% | activity at 25 µM [1, 7]: 44 ± 3% | activity at 50 µM [1, 7]: 29 ± 10% | activity at 100 µM [1, 7]: 21 ± 1% | activity at 200 µM [1, 7]: 5 ± 1% | activity at 400 µM [1, 7]: 6 ± 2% | IC50 [1, 8]: 56 ± 5 µM | IC50 ([1]; IC50 4 h, 4-h preincubation): 13 ± 2 µM | activity at 100 µM [1, 9]: 11 ± 9% | activity at 100 µM [1, 10]: 3.5 ± 0.2% | inhibition at 100 µM [1]: 96.5% | Kobs ([2]; inhibitor 0.390625 µM): 0.003884 ± 0.002 s⁻¹ | Kobs ([2]; inhibitor 0.78125 µM): 0.003327 ± 0.002 s⁻¹ | Kobs ([2]; inhibitor 1.5625 µM): 0.003467 ± 0.002 s⁻¹ | Kobs ([2]; inhibitor 3.125 µM): 0.003356 ± 0.002 s⁻¹ | Kobs ([2]; inhibitor 6.25 µM): 0.003415 ± 0.002 s⁻¹ | Kobs ([2]; inhibitor 12.5 µM): 0.003372 ± 0.002 s⁻¹ | Kobs ([2]; inhibitor 25 µM): 0.003515 ± 0.002 s⁻¹ | Kobs ([2]; inhibitor 50 µM): 0.003742 ± 0.001 s⁻¹ | Kobs ([2]; inhibitor 100 µM): 0.004728 ± 0.001 s⁻¹ | Kobs ([2]; inhibitor 200 µM): 0.006479 ± 0.003 s⁻¹ | kinact/KI ([2]; slope of kobs vs inhibitor concentration): 17 M⁻¹ s⁻¹ | CC50 at 72 h [3]: > 200 µM | EC50 [4]: > 200 µM | activity at 100 µM [5, 9]: 87 ± 10% | activity at 100 µM [5, 10]: 79 ± 8%

O=C1NC(=O)C(=Cc2cccc(O)c2)C(=O)N1 [2g, 5-(3-Hydroxybenzylidene)pyrimidine-2,4,6(1H,3H,5H)-trione]
activity at 0.78125 µM [1, 6]: 90 ± 9% | activity at 1.5625 µM [1, 6]: 106 ± 12% | activity at 3.125 µM [1, 6]: 78 ± 13% | activity at 6.25 µM [1, 6]: 106 ± 15% | activity at 12.5 µM [1, 6]: 101 ± 10% | activity at 25 µM [1, 6]: 82 ± 17% | activity at 50 µM [1, 6]: 63 ± 8% | activity at 100 µM [1, 6]: 45 ± 5% | activity at 200 µM [1, 6]: 29 ± 3% | activity at 400 µM [1, 6]: 21 ± 2% | activity at 0.78125 µM [1, 7]: 88 ± 8% | activity at 1.5625 µM [1, 7]: 72 ± 9% | activity at 3.125 µM [1, 7]: 77 ± 13% | activity at 6.25 µM [1, 7]: 75 ± 10% | activity at 12.5 µM [1, 7]: 58 ± 5% | activity at 25 µM [1, 7]: 36 ± 4% | activity at 50 µM [1, 7]: 23 ± 3% | activity at 100 µM [1, 7]: 12.1 ± 2% | activity at 200 µM [1, 7]: 7.1 ± 2% | activity at 400 µM [1, 7]: 5.4 ± 3% | IC50 [1, 8]: 90 ± 10 µM | IC50 ([1]; IC50 4 h, 4-h preincubation): 13 ± 1 µM | activity at 100 µM [1, 9]: 22 ± 4% | activity at 100 µM [1, 10]: 8 ± 2% | inhibition at 100 µM [1]: 90 to 93% | Kobs ([2]; inhibitor 0.390625 µM): 0.003649 ± 0.003 s⁻¹ | Kobs ([2]; inhibitor 0.78125 µM): 0.003674 ± 0.003 s⁻¹ | Kobs ([2]; inhibitor 1.5625 µM): 0.00383 ± 0.002 s⁻¹ | Kobs ([2]; inhibitor 3.125 µM): 0.003621 ± 0.002 s⁻¹ | Kobs ([2]; inhibitor 6.25 µM): 0.003878 ± 0.002 s⁻¹ | Kobs ([2]; inhibitor 12.5 µM): 0.004049 ± 0.002 s⁻¹ | Kobs ([2]; inhibitor 25 µM): 0.004549 ± 0.002 s⁻¹ | Kobs ([2]; inhibitor 50 µM): 0.005211 ± 0.002 s⁻¹ | Kobs ([2]; inhibitor 100 µM): 0.007035 ± 0.001 s⁻¹ | Kobs ([2]; inhibitor 200 µM): 0.01421 ± 0.003 s⁻¹ | Kobs ([2]; inhibitor 400 µM): 0.01927 ± 0.006 s⁻¹ | CC50 at 72 h [3]: 76 ± 12 µM | EC50 [4]: > 200 µM | activity at 100 µM [5, 9]: 101 ± 11% | activity at 100 µM [5, 10]: 96 ± 9%
